Laboratory results as given in article PMC4391747 (Science translational medicine, 2012).

How the values were obtained:
[1] = rat, in vivo; cited from earlier work
[2] = Solubility of MIV-150 in ring polymer; type: physicochemical

Solubility of MIV-150 in EVA-40 ([2]; DSC): partially soluble
Solubility of MIV-150 in silicone ([2]; DSC of formulated ring segments and release studies with micronized MIV-150): insoluble
Structure (SMILES): CCC(=O)c1ccc(F)c([C@@H]2C[C@@H]2NC(=O)Nc2ccc(C#N)cn2)c1O [MIV-150]
Time within which absorbed MIV-150 is cleared [1]: ≤ 12 h
